Experimental data as given in paper PMC9728921, “Characterization of a KDM5 small molecule inhibitor with antiviral activity against hepatitis B virus” (PLOS ONE, 2022).

What was measured:
HDAC-1 = target: T1, HDAC-1 (Homo sapiens, UniProt Q13547); assay: HDAC-1 histone deacetylase assay (FLUOR DE LYS); assay type: biochemical; conditions: enzyme conc. 5 nM
T1 construct: Full length; purchased BPS

KDM enzymes = assay: KDM enzyme panel, selectivity across KDM families; assay type: biochemical, human
Method: The following assay protocol was used for all histone demethylases tested except KDM1A, KDM5A, B, and D, which are described below. Compounds were serially diluted into a 384-well Alpha plate as a DMSO solution and mixed with 5 μL reaction buffer (buffer A) containing 50 mM HEPES (pH 7.0), 0.1% BSA, and 0.003% Tween-20. The enzyme of interest was pre-incubated with 15 μM of Fe^2+ for 10 min (except 30 min for KDM2B) in reaction buffer A. 5 μL of the enzyme mixture was added to each of the compound-containing wells and incubated for 10 min. […] The assay plates were read on an Enspire plate reader (PerkinElmer) using a standard AlphaLISA program.
KDM5A and 5B were tested using CisBio HTRF assay platform by Reaction Biology Corp (Malvern, PA). […] The fluorescence resonance energy transfer was measured using an excitation wavelength of 320 nm and emission wavelength of 665 nm on an Envision plate reader (Perkin Elmer). […]
The KDM1 assay was conducted in the presence of […] but without Fe(II) or ascorbic acid. […] The assay plates were read on an Enspire plate reader (PerkinElmer) using a standard AlphaLISA program.
Data was analyzed using GraphPad Prism 6.0 (La Jolla, CA). […] IC50 values were calculated as an average of at least two independent experiments.

HMT or HDAC enzymes = assay: Panel of HMT and HDAC enzymes; assay type: biochemical; conditions: no measurable inhibitory activity; read-out: IC50 against any of the HMT or HDAC enzymes tested
Method: Histone methyltransferase assays were performed in 96-well half-area optiplates (PerkinElmer) at room temperature. All concentrations are final unless noted otherwise. Compounds were serially diluted in DMSO and the final DMSO concentration was 1%. […] The plate was sealed, mixed on a Titramax plate shaker at 1200 rpm for 30 sec, and incubated at room temperature for 60 min. […] The plate was sealed, mixed as previously noted, incubated overnight, and read on a TopCount plate reader (PerkinElmer). The HDAC-1 histone deacetylase assay was tested using the FLUOR DE LYS platform ([…]). Inhibition of SIRT-1 histone deacetylase was tested with the AlphaLISA detection system. All assays were conducted at room temperature with a final DMSO concentration of 1%. […] After a 60-minute incubation, the reaction was quenched with 10 μL AlphaLISA H3K4-specific Acceptor beads (1:200) in Epigenetics Buffer, and the reaction mixture was incubated for 60 min. The Donor beads were diluted 1:200 into Epigenetics Buffer in the dark and 10 μL of this mixture was added to each well and incubated for another 60 min in the dark. The assay plates were read on an Enspire plate reader (PerkinElmer) using a standard AlphaLISA program. […] Data was analyzed using GraphPad Prism 6.0 (La Jolla, CA). […] IC50 values were calculated as an average of at least two independent experiments.

[1] = Liver to plasma AUC ratio, rat; assay type: in vivo, Sprague Dawley rats; conditions: male, Sprague Dawley, liver and plasma, po, 1 mg/kg, read-out: GS-080 liver to plasma AUC ratio
Method: Rats and monkeys were dosed by oral gavage once with 1 mg/kg or 2.5 mg/kg, respectively. The rat study included a vehicle control group (water). Serial venous blood samples were taken at 0, 0.25, 0.5, 1, 2, 4, 6, 8, 12, and 24 hours post dose from each animal and collected into vacutainer tubes containing potassium oxalate/sodium fluoride (Thermo Fisher; BD367925) as the anti-coagulant and blood was centrifuged for plasma isolation. […] For monkey, liver samples were taken by biopsy at pre-dose, 1, 4, 24, 48, and 72 hours post dose (n = 2 per time point). Rat and monkey livers were weighed and immediately flash frozen in liquid nitrogen.
500 μL of cold HPLC grade water was added to each monkey liver biopsy sample and rat liver samples were diluted 3-fold with cold HPLC grade water. Diluted liver samples were homogenized between 1 and 3 minutes. 50 μL of plasma samples and homogenized liver samples were quenched with 200 μL of 0.05% formic acid in acetonitrile. […] An Agilent 1200 series binary pump (Santa Clara, CA; G1312A) was used for elution and separation of compounds with a Hypersil Gold C18 HPLC column (Thermo Fisher; 50 x 3.0 mm, 5 μm) over 6.75 minutes with 99–3% gradient of Mobile Phase A (1% acetonitrile in 2.5 mM ammonium formate aqueous solution pH 2.6) and 1–97% gradient Mobile Phase B (90% acetonitrile in aqueous 10 mM ammonium formate pH 6.8).

T1 sequence (Q13547 whole entry): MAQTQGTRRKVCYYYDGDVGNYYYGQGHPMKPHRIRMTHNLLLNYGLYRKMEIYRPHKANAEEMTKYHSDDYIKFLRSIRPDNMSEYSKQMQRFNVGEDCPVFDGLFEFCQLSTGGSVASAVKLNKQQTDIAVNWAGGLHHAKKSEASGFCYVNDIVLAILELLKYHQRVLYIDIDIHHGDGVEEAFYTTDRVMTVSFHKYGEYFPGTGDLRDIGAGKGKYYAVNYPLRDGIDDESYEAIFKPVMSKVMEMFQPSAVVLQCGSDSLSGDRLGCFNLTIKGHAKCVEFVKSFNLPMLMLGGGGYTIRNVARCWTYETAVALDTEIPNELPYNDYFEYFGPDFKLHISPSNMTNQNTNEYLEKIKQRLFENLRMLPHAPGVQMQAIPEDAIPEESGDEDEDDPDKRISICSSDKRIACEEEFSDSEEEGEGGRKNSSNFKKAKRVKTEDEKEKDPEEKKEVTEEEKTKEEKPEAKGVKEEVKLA

IC50 (HDAC-1): > 100 µM | fold selectivity for KDM5A and KDM5B over members of the KDM4 family (KDM enzymes; KDM4A –C): ≥ 13 fold | fold selectivity over members of the other KDM enzyme families tested (KDM enzymes; printed as from > 1,100- to > 278,000-fold, relative to KDM5A): > 1,100 fold | IC50 (HMT or HDAC enzymes): > 100 µM | Kp [1]: 44
SMILES: CCN(CCN(C)C)C(=O)CNCc1cc(C(=O)O)ccn1 [GS-080]
